Consider 1 compound from patent publication US20250339426A1, “GCN2 MODULATOR FOR TREATING CANCER” (HIBERCELL, INC., priority 2022, published 2025).

For data set [1], the system named is MV4-11 (human AML cancer cells). Description: In vivo tumor growth inhibition, MV4-11 xenograft. Details: species or system BALB/c nude mice. How it is done:
MV4-11 (human AML cancer cells): Female 6-8 weeks old BALB/c nude mice were inoculated subcutaneously on the right flank with MV4-11 tumor cells (1×10^7) in RPMI 1640 without serum for tumor development. The treatments were started when the mean tumor size reached approximately 150 mm^3 at Day 13 after cell inoculation and continued until end of study by twice daily oral gavage dosing of HC-7366 at listed doses (vehicle, 0.3 mg/kg HC-7366, 1 mg/kg HC-7366, 3 mg/kg HC-7366, 10 mg/kg HC-7366, or 30 mg/kg HC-7366, FIG. 20). For venetoclax combination study, venetoclax was dissolved in 0.5% carboxymethylcellulose (CMC) and co-administered at 50 mg/kg dose once daily (see Example 8).
(§1) [formula] • 2.2.2 Tumor Measurements: The measurement of tumor size was conducted three times weekly with a caliper and recorded. The tumor volume (mm^3) was estimated using the formula: TV=a×b^2/2, where “a” and “b” is long and short diameters of a tumor, respectively. Tumor volume was calculated using the formula [tumor volume (mm^3)=π/6×length×width^2).
(§2) Regression was calculated using the formula=100×ΔT/T initial, if ΔT<0. Animals with 0 mm^3 tumor volume (no measurable tumor) for three consecutive measurements were considered as complete responders and animals with 50% tumor regressions were partial responders.
MV4-11 tumors were collected at the end of the venetoclax combination study described in Example 6. Tumor growth curves are provided of MV4-11 tumors treated with single agent HC-7366 and venetoclax or combination (FIG. 43).

The subject of data set [2] is upstream regulators of differentially expressed genes in DLD-1 tumors. Nature of the data set: RNAseq analysis of DLD-1 tumors. It counts as in vivo, mice. How it is done: DLD-1 (human colorectal cancer cells): Female 6-8 weeks old BALB/c nude mice were inoculated subcutaneously on the right flank with DLD-1 tumor cells (5×10^6) in 0.1 ml of RPMI1640 medium without serum for tumor development. The treatments were started when the mean tumor size reached approximately 195 mm^3 at Day 7 post inoculation and continued until end of study by twice daily oral gavage dosing of HC-7366 at listed doses (vehicle, 0.3 mg/kg HC-7366, 1 mg/kg HC-7366, 3 mg/kg HC-7366, 10 mg/kg HC-7366, or 30 mg/kg HC-7366, FIG. 10). For the time course study, tumors were harvested at Days 4, 7 and 14. Tumors were then used for IHC and RNAseq experiments (see Example 21).
DLD-1 tumor bearing mice were treated with HC-7366 at 0.3, 1, 3, 10 and 30 mg/kg twice a day for 14 days. Tumors were harvested for RNAseq analysis at Day 4, Day 7 and Day 14 (FIG. 128).

Data set [3] deals with LNCaP (human prostate cancer cells). Description: In vivo tumor growth inhibition, LNCaP xenograft. The note with it: ≥3 mg/kg twice daily oral. Further details: species or system NOD SCID mice. The procedure: LNCaP (human prostate cancer cells): Male 6-8 weeks old NOD SCID mice were inoculated subcutaneously on the right flank with LNCaP tumor cells (1×10^7) in 0.1 ml with Matrigel (1:1) in RPMI1640 with 10% fetal bovine serum (FBS) for tumor development. The treatments were started when the mean tumor size reached approximately 207 mm^3 at Day 14 post inoculation and continued until end of study by twice daily oral gavage dosing of HC-7366 at listed doses (vehicle, 0.3 mg/kg HC-7366, 1 mg/kg HC-7366, 3 mg/kg HC-7366, 10 mg/kg HC-7366, or 30 mg/kg HC-7366 twice daily, FIG. 14).
as §1, §2

In data set [4] the test system is MFE280 (human endometrial cancer cells). Nature of the data set: In vivo tumor growth inhibition, MFE280 xenograft. Further details: species or system Athymic Nude-Foxn1nu mice.
A short description of data set [5]: Tolerability by body weight in tumor-bearing mice. The data set is classed as in vivo. The note with it: NCI-H1975 study. How it is done: For routine monitoring, all study animals were monitored not only for tumor growth but also behavior such as mobility, food and water consumption (by cage side checking only), body weight (BW), eye/hair matting and any other abnormal effect. Any mortality and/or abnormal clinical signs were recorded. • 2.2.1 Body Weight (BW): Body weights of all animals were measured and recorded three times weekly throughout the study. Body weight change, expressed in %, is calculated using the following formula: […]

SMILES strings stand for the structures.

As to `CNC(=O)c1ncn2cc(-c3c(F)ccc(NS(=O)(=O)c4cc(Cl)cnc4OC)c3F)ncc12` [HC-7366, 6-(3-((5-chloro-2-methoxypyridine)-3-sulfonamido)-2,6-difluorophenyl)-N-methylimidazo[1,5-a]pyrazine-1-carboxamide], the TGI is recorded as 45% in data set [1] (30 mg/kg twice daily oral) and 34% in data set [1] (venetoclax combination study, HC-7366 as a single agent, dose not stated). Further, the “HIF1α, SMAD4 and E2F1 signature” value in data set [2] (0.3-30 mg/kg twice a day) is “reduction”. The “ATF4 (upstream regulator of differentially expressed genes)” value in data set [2] (all doses (0.3-30 mg/kg twice a day)) is reported as “significantly induced”. Moreover, the figures for the tumor growth inhibition in data set [3], in data set [4] (HC-7366 0.5 mg/kg twice daily oral) and in data set [4] (HC-7366 2 mg/kg twice daily oral) were 61-65%, 45% and 53%, respectively. Besides, the body weight loss entry in data set [5] is reported as “No treatment related body weight loss”.
